Toxic doses and inconclusive results are not listed. No stated cut-off is given here; in the data, active means T/C of 150% or more; inactive means T/C below 125%.
Tested on: L1210 leukemia ip in BDF1 mice, survival T/C
Experiment: NCI In Vivo Anticancer Drug Screen. Data for tumor model L1210 Leukemia (intraperitoneal) in B6D2F1 (BDF1) mice
Settings: endpoint: mean survival time, higher = longer survival
Outline: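 Tumor cells were implanted, animals were treated, and survival was followed. The result divides the treated measurement by the vehicle-control measurement.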

[1] = dose: 100.0 mg/kg/injection, schedule: Q04DX002 (ip), vehicle: saline with Tween-80
[2] = dose: 200.0 mg/kg/injection, schedule: Q04DX002 (ip), vehicle: saline with Tween-80
[3] = dose: 400.0 mg/kg/injection, schedule: Q04DX002 (ip), vehicle: saline with Tween-80
[4] = dose: 25.0 mg/kg/injection, schedule: Q01DX009 (ip), vehicle: carboxymethylcellulose (CMC)
[5] = dose: 50.0 mg/kg/injection, schedule: Q01DX009 (ip), vehicle: carboxymethylcellulose (CMC)
[6] = dose: 100.0 mg/kg/injection, schedule: Q01DX001 (ip), vehicle: saline
[7] = dose: 200.0 mg/kg/injection, schedule: Q01DX001 (ip), vehicle: saline
[8] = dose: 400.0 mg/kg/injection, schedule: Q01DX001 (ip), vehicle: saline
[9] = dose: 100.0 mg/kg/injection, schedule: Q01DX009 (ip), vehicle: Klucel (hydroxypropylcellulose) (HPC)
[10] = dose: 200.0 mg/kg/injection, schedule: Q01DX009 (ip), vehicle: Klucel (hydroxypropylcellulose) (HPC)
[11] = dose: 400.0 mg/kg/injection, schedule: Q01DX009 (ip), vehicle: Klucel (hydroxypropylcellulose) (HPC)
[12] = dose: 100.0 mg/kg/injection, schedule: Q04DX003 (ip), vehicle: Klucel (hydroxypropylcellulose) (HPC)
[13] = dose: 200.0 mg/kg/injection, schedule: Q04DX003 (ip), vehicle: Klucel (hydroxypropylcellulose) (HPC)
[14] = dose: 400.0 mg/kg/injection, schedule: Q04DX003 (ip), vehicle: Klucel (hydroxypropylcellulose) (HPC)
[15] = dose: 50.0 mg/kg/injection, schedule: Q01DX009 (ip), vehicle: Klucel (hydroxypropylcellulose) (HPC)
[16] = dose: 100.0 mg/kg/injection, schedule: Q01DX001 (ip), vehicle: carboxymethylcellulose (CMC)
[17] = dose: 100.0 mg/kg/injection, schedule: Q01DX009 (ip), vehicle: saline with Tween-80

Measured: T/C

O=C=NCCCl
inactive: dose: 0.5 mg/kg/injection, schedule: Q01DX001 (ip), vehicle: propolene glycol 101 % of control | dose: 1.0 mg/kg/injection, schedule: Q01DX001 (ip), vehicle: propolene glycol 90 % of control | dose: 2.0 mg/kg/injection, schedule: Q01DX001 (ip), vehicle: propolene glycol 89 % of control | dose: 3.0 mg/kg/injection, schedule: Q01DX001 (ip), vehicle: propolene glycol 89 % of control | dose: 4.0 mg/kg/injection, schedule: Q01DX001 (ip), vehicle: propolene glycol 92 % of control | dose: 6.0 mg/kg/injection, schedule: Q01DX001 (ip), vehicle: propolene glycol 89 % of control | dose: 6.5 mg/kg/injection, schedule: Q01DX001 (ip), vehicle: olive oil, sesame oil, peanut oil 98 % of control | dose: 8.0 mg/kg/injection, schedule: Q01DX001 (ip), vehicle: propolene glycol 92 % of control | dose: 12.5 mg/kg/injection, schedule: Q01DX001 (ip), vehicle: propolene glycol 95 % of control | dose: 12.5 mg/kg/injection, schedule: Q01DX009 (sc), vehicle: olive oil, sesame oil, peanut oil 95 % of control | dose: 13.0 mg/kg/injection, schedule: Q01DX001 (ip), vehicle: olive oil, sesame oil, peanut oil 104 % of control | dose: 25.0 mg/kg/injection, schedule: Q01DX001 (ip), vehicle: propolene glycol 91 % of control | dose: 25.0 mg/kg/injection, schedule: Q01DX009 (sc), vehicle: olive oil, sesame oil, peanut oil 103 % of control | dose: 26.0 mg/kg/injection, schedule: Q01DX001 (ip), vehicle: olive oil, sesame oil, peanut oil 96 % of control | dose: 40.0 mg/kg/injection, schedule: Q01DX001 (ip), vehicle: olive oil, sesame oil, peanut oil 102 % of control | dose: 50.0 mg/kg/injection, schedule: Q01DX009 (sc), vehicle: olive oil, sesame oil, peanut oil 97 % of control | dose: 60.0 mg/kg/injection, schedule: Q01DX001 (ip), vehicle: olive oil, sesame oil, peanut oil 98 % of control | dose: 93.0 mg/kg/injection, schedule: Q01DX001 (ip), vehicle: olive oil, sesame oil, peanut oil 100 % of control | dose: 100.0 mg/kg/injection, schedule: Q04DX003 (sc), vehicle: olive oil, sesame oil, peanut oil 97 % of control | dose: 125.0 mg/kg/injection, schedule: Q01DX001 (ip), vehicle: olive oil, sesame oil, peanut oil 106 % of control | dose: 187.0 mg/kg/injection, schedule: Q01DX001 (ip), vehicle: olive oil, sesame oil, peanut oil 98 % of control | dose: 250.0 mg/kg/injection, schedule: Q01DX001 (ip), vehicle: olive oil, sesame oil, peanut oil 98 % of control | dose: 250.0 mg/kg/injection, schedule: Q01DX001 (ip), vehicle: propolene glycol 113 % of control | dose: 375.0 mg/kg/injection, schedule: Q01DX001 (ip), vehicle: olive oil, sesame oil, peanut oil 104 % of control | dose: 500.0 mg/kg/injection, schedule: Q01DX001 (ip), vehicle: olive oil, sesame oil, peanut oil 93 % of control

Cc1ccc2c(c1)Oc1ccccc1S2
inactive: [1] 96 % of control | [2] 103 % of control | [3] 103 % of control

O=C(CCl)Nc1ccc(S(=O)(=O)F)cc1
inactive: dose: 12.5 mg/kg/injection, schedule: Q01DX009 (ip), vehicle: carboxymethylcellulose (CMC) 93 % of control | [4] 88 % of control | [5] 88 % of control | dose: 100.0 mg/kg/injection, schedule: Q04DX003 (ip), vehicle: carboxymethylcellulose (CMC) 96 % of control

O=C1CCCC(=O)NNC(=O)Nc2ccccc2NC(=O)NN1
inactive: dose: 50.0 mg/kg/injection, schedule: Q01DX001 (ip), vehicle: saline 102 % of control | [6] 90 % of control | [7] 96 % of control | [8] 96 % of control

COc1ccc(Cl)cc1NC(=O)Oc1ccc(NC(C)=O)cc1
inactive: [9] 96 % of control | [10] 102 % of control | [11] 98 % of control

Cc1ccc(SS(=O)(=O)c2ccc(C)cc2)cc1
inactive: dose: 100.0 mg/kg/injection, schedule: Q01DX001 (ip), vehicle: Klucel (hydroxypropylcellulose) (HPC) 86 % of control | dose: 100.0 mg/kg/injection, schedule: Q01DX009 (ip), vehicle: saline sonified 116 % of control | [12] 114 % of control | dose: 200.0 mg/kg/injection, schedule: Q01DX001 (ip), vehicle: Klucel (hydroxypropylcellulose) (HPC) 86 % of control | dose: 200.0 mg/kg/injection, schedule: Q01DX009 (ip), vehicle: saline sonified 102 % of control | [13] 101 % of control | dose: 400.0 mg/kg/injection, schedule: Q01DX009 (ip), vehicle: saline sonified 107 % of control | [14] 106 % of control

COC1(OC)C2(Cl)CC(=O)C3CC(=O)C3C1(Cl)C(Cl)=C2Cl (configuration not stated)
inactive: [15] 92 % of control | [6] 100 % of control | [9] 94 % of control | [7] 94 % of control | [10] 102 % of control | [8] 101 % of control

C[C@]12CC[C@H](O)C[C@@]1(O)CC[C@@H]1[C@@H]2CC[C@]2(C)[C@@H](c3ccc(=O)oc3)CC[C@]12O
inactive: dose: 1.25 mg/kg/injection, schedule: Q01DX009 (ip), vehicle: Klucel (hydroxypropylcellulose) (HPC) 107 % of control | dose: 2.5 mg/kg/injection, schedule: Q01DX009 (ip), vehicle: Klucel (hydroxypropylcellulose) (HPC) 91 % of control | dose: 5.0 mg/kg/injection, schedule: Q01DX009 (ip), vehicle: Klucel (hydroxypropylcellulose) (HPC) 96 % of control | dose: 10.0 mg/kg/injection, schedule: Q01DX009 (ip), vehicle: Klucel (hydroxypropylcellulose) (HPC) 102 % of control | dose: 20.0 mg/kg/injection, schedule: Q01DX009 (ip), vehicle: Klucel (hydroxypropylcellulose) (HPC) 98 % of control | [4] 106 % of control | dose: 50.0 mg/kg/injection, schedule: Q01DX001 (ip), vehicle: carboxymethylcellulose (CMC) 104 % of control | [5] 92 % of control | [16] 109 % of control

Cc1cc(C)c(NS(=O)(=O)c2ccccc2)c([N+](=O)[O-])c1
inactive: [1] 101 % of control | [2] 104 % of control | [3] 104 % of control

CCC(C)[n+]1cc([O-])on1 (configuration not stated)
inactive: dose: 12.5 mg/kg/injection, schedule: Q01DX009 (ip), vehicle: Klucel (hydroxypropylcellulose) (HPC) 98 % of control | dose: 25.0 mg/kg/injection, schedule: Q01DX009 (ip), vehicle: Klucel (hydroxypropylcellulose) (HPC) 98 % of control | [15] 95 % of control

CC(C)(CBr)COS(=O)(=O)c1ccc(Br)cc1
inactive: dose: 50.0 mg/kg/injection, schedule: Q01DX009 (ip), vehicle: saline with Tween-80 89 % of control | [17] 91 % of control

CN(N)C(=O)Nc1ccccc1Cl
inactive: dose: 75.0 mg/kg/injection, schedule: Q01DX001 (ip), vehicle: carboxymethylcellulose (CMC) 100 % of control | dose: 150.0 mg/kg/injection, schedule: Q01DX001 (ip), vehicle: carboxymethylcellulose (CMC) 107 % of control

COc1cc([N+](=O)[O-])ccc1NC(=O)Cc1ccccc1
inactive: [17] 111 % of control | dose: 200.0 mg/kg/injection, schedule: Q01DX009 (ip), vehicle: saline with Tween-80 91 % of control | dose: 400.0 mg/kg/injection, schedule: Q01DX009 (ip), vehicle: saline with Tween-80 96 % of control

O=C(OC1CCCCCCC1)C(F)(F)F
inactive: [9] 98 % of control | [12] 104 % of control | [10] 101 % of control | [13] 105 % of control | [11] 92 % of control | [14] 105 % of control

CC(C)(C)CC(C)(C)c1ccc(OCCOc2ccccc2N)cc1
inactive: dose: 100.0 mg/kg/injection, schedule: Q04DX003 (ip), vehicle: saline with Tween-80 94 % of control | dose: 200.0 mg/kg/injection, schedule: Q04DX003 (ip), vehicle: saline with Tween-80 95 % of control | dose: 400.0 mg/kg/injection, schedule: Q04DX003 (ip), vehicle: saline with Tween-80 97 % of control

COC(=O)C1(CCOC(C)=O)CCCCC12OCCO2 (configuration not stated)
inactive: [16] 94 % of control | dose: 200.0 mg/kg/injection, schedule: Q01DX001 (ip), vehicle: carboxymethylcellulose (CMC) 100 % of control | dose: 400.0 mg/kg/injection, schedule: Q01DX001 (ip), vehicle: carboxymethylcellulose (CMC) 91 % of control
